Assay: xn = mol fraction of the nth substance listed

CCCCCCCCCCCC[N+](C)(C)CC.[Br-] + O
viscosity [mPa·s], 101 kPa
Conditions	x1 = 3.604e-05	x1 = 9.009e-05	x1 = 0.0001441	x1 = 0.0001802	x1 = 0.0002702	x1 = 0.0003603	x1 = 0.0004503	x1 = 0.0005403
298.15 K	0.895	0.903	0.913	0.916	0.929	0.938	0.947	0.956
303.15 K	0.796	0.807	0.816	0.822	0.831	0.839	0.847	0.854
308.15 K	0.714	0.726	0.735	0.74	0.75	0.758	0.765	0.773
313.15 K	0.647	0.658	0.666	0.673	0.682	0.688	0.693	0.699
318.15 K	0.587	0.595	0.605	0.61	0.619	0.623	0.628	0.632

CC(=O)[O-].CCCC[n+]1ccn(C)c1 + NCCN1CCNCC1 + O
viscosity [mPa·s], 101 kPa
Conditions	298.15 K	303.15 K	308.15 K	313.15 K	318.15 K	323.15 K	328.15 K	333.15 K
x1 = 0.03479, x2 = 0	2.23	2.18	2.16	2.13	1.74	1.58	1.51	1.24
x1 = 0.03897, x2 = 0	2.35	2.29	2.25	2.22	2.11	2.07	1.91	1.86
x1 = 0.04311, x2 = 0	2.66	2.63	2.56	2.49	2.29	2.26	2.02	1.97

CC1COC(=O)O1 (configuration not stated) + CC[n+]1ccn(C)c1.O=S(=O)([N-]S(=O)(=O)C(F)(F)F)C(F)(F)F
101.3 kPa, x2 = 0
Conditions	viscosity [mPa·s]
303.15 K	2.246
318.15 K	1.73
338.15 K	1.294

CCC[N+]1(C)CCCC1.O=S(=O)([N-]S(=O)(=O)C(F)(F)F)C(F)(F)F + CCCC[N+]1(C)CCCC1.O=S(=O)([N-]S(=O)(=O)C(F)(F)F)C(F)(F)F
101 kPa
Conditions	electrical conductivity [S/m]	viscosity [mPa·s]
293.15 K, x2 = 0.25	0.248	81.4
333.15 K, x2 = 0	1.18	18.8
333.15 K, x2 = 0.75	1.01	20.7
353.15 K, x2 = 0.5	1.5	12.2

CC1COC(=O)O1 (configuration not stated) + COCCn1cc[n+](C)c1.N#C[S-]
101 kPa, x2 = 0
Conditions	viscosity [mPa·s]
288.15 K	3.06
293.15 K	2.75
298.15 K	2.47
303.15 K	2.25
308.15 K	2.05
313.15 K	1.88
318.15 K	1.73
323.15 K	1.6
328.15 K	1.49
333.15 K	1.39
338.15 K	1.29
343.15 K	1.21

O=C1CCCCCN1 + CCCC[N+](CCCC)(CCCC)CCCC.[Cl-]
101 kPa, x1 = 0.5
Conditions	electrical conductivity [S/m]
313.15 K	0.2162
315.65 K	0.257
328.15 K	0.5612

CCC[N+]1(C)CCCC1.O=S(=O)([N-]S(=O)(=O)C(F)(F)F)C(F)(F)F + CCCCCCCCCCCCCC[P+](CCCCCC)(CCCCCC)CCCCCC.O=S(=O)([N-]S(=O)(=O)C(F)(F)F)C(F)(F)F
313.15 K, 101 kPa, x2 = 0.75
Conditions	electrical conductivity [S/m]	viscosity [mPa·s]
–	0.0308	135

Source: the CheMixHub ionic liquid set
